Laboratory results published in the supplement of paper PMC10307832.

What was measured:
Assay in all cases: relative viability (nuclei count vs DMSO), 5 days (fraction); higher = more cells survive
201T = tested on: 201T
Method in brief: (§1)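 Medians of duplicate plates are given as relative viability. That measure is the nuclei count in treated wells divided by the count in vehicle wells. Counts were taken on 4× images of lung cancer cell lines in 1536-well plates, 5 days after pin-tool dosing the day after seeding with one drug alone or a fixed anchor-drug dose plus five library-drug doses (not always all listed) in √10 steps.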

BEN = tested on: BEN
Method in brief: as §1

COR-L 105 = tested on: COR-L 105
Method in brief: as §1

EKVX = tested on: EKVX
Method in brief: as §1

EPLC-272H = tested on: EPLC-272H
Method in brief: as §1

H3255 = tested on: H3255
Method in brief: as §1

HCC-44 = tested on: HCC-44
Method in brief: as §1

HCC-827 = tested on: HCC-827
Method in brief: as §1

LCLC-97TM1 = tested on: LCLC-97TM1
Method in brief: as §1

LOU-NH91 = tested on: LOU-NH91
Method in brief: as §1

LU99A = tested on: LU99A
Method in brief: as §1

NCI-H1437 = tested on: NCI-H1437
Method in brief: as §1

NCI-H1666 = tested on: NCI-H1666
Method in brief: as §1

NCI-H1975 = tested on: NCI-H1975
Method in brief: as §1

NCI-H2085 = tested on: NCI-H2085
Method in brief: as §1

NCI-H2087 = tested on: NCI-H2087
Method in brief: as §1

NCI-H2170 = tested on: NCI-H2170
Method in brief: as §1

NCI-H647 = tested on: NCI-H647
Method in brief: as §1

NCI-H650 = tested on: NCI-H650
Method in brief: as §1

PC-3 [JPC-3] = tested on: PC-3 [JPC-3]
Method in brief: as §1

SW 1573 = tested on: SW 1573
Method in brief: as §1

Work on `Cc1sc2c(c1C)C(c1ccc(Cl)cc1)=N[C@@H](CC(=O)OC(C)(C)C)c1nnc(C)n1-2` [JQ1] + C[C@@H](Oc1cc(-c2cnn(C3CCNCC3)c2)cnc1N)c1c(Cl)ccc(F)c1Cl [Crizotinib] (partner 1 µM) yielded a relative viability (201T; first compound 0.04 µM) of 1.05, a relative viability (201T; first compound 0.1265 µM) of 0.882 and a relative viability (201T; first compound 0.4 µM) of 0.93. For the same molecule, the relative viability (201T; first compound 1.265 µM) was 0.73, the relative viability (201T; first compound 4 µM) was 0.602 and the relative viability (BEN; first compound 0.04 µM) was 0.67. It also gave a relative viability (BEN; first compound 0.1265 µM) of 0.84, a relative viability (BEN; first compound 0.4 µM) of 0.51 and a relative viability (BEN; first compound 1.265 µM) of 0.335. The relative viability (BEN; first compound 4 µM) was 0.229, the relative viability (COR-L 105; first compound 0.04 µM) was 0.705 and the relative viability (COR-L 105; first compound 0.1265 µM) was 0.25. It also gave a relative viability (COR-L 105; first compound 0.4 µM) of 0.403, a relative viability (COR-L 105; first compound 1.265 µM) of 0.245 and a relative viability (COR-L 105; first compound 4 µM) of 0.267. It also gave a relative viability (EKVX; first compound 0.04 µM) of 0.713, a relative viability (EKVX; first compound 0.1265 µM) of 0.749 and a relative viability (EKVX; first compound 0.4 µM) of 0.938. For the same molecule, the relative viability (EKVX; first compound 1.265 µM) was 0.707, the relative viability (EKVX; first compound 4 µM) was 0.489 and the relative viability (EPLC-272H; first compound 0.04 µM) was 0.904. The relative viability (EPLC-272H; first compound 0.1265 µM) was 0.759, the relative viability (EPLC-272H; first compound 0.4 µM) was 0.885 and the relative viability (EPLC-272H; first compound 1.265 µM) was 0.364. The relative viability (EPLC-272H; first compound 4 µM) was 0.37, the relative viability (H3255; first compound 0.04 µM) was 0.828 and the relative viability (H3255; first compound 0.1265 µM) was 0.715. For the same molecule, the relative viability (H3255; first compound 0.4 µM) was 0.741, the relative viability (H3255; first compound 1.265 µM) was 0.316 and the relative viability (H3255; first compound 4 µM) was 0.221. For the same molecule, the relative viability (HCC-44; first compound 0.04 µM) was 0.822, the relative viability (HCC-44; first compound 0.1265 µM) was 0.623 and the relative viability (HCC-44; first compound 0.4 µM) was 0.397. It also gave a relative viability (HCC-44; first compound 1.265 µM) of 0.277, a relative viability (HCC-44; first compound 4 µM) of 0.243 and a relative viability (HCC-827; first compound 0.04 µM) of 1.01. For the same molecule, the relative viability (HCC-827; first compound 0.4 µM) was 0.663, the relative viability (HCC-827; first compound 1.265 µM) was 0.672 and the relative viability (HCC-827; first compound 4 µM) was 0.668. It also gave a relative viability (LCLC-97TM1; first compound 0.1265 µM) of 0.285, a relative viability (LCLC-97TM1; first compound 0.4 µM) of 0.19 and a relative viability (LCLC-97TM1; first compound 1.265 µM) of 0.118. The relative viability (LCLC-97TM1; first compound 4 µM) was 0.117, the relative viability (LOU-NH91; first compound 0.04 µM) was 0.719 and the relative viability (LOU-NH91; first compound 0.1265 µM) was 0.693. The relative viability (LOU-NH91; first compound 0.4 µM) was 0.531, the relative viability (LOU-NH91; first compound 1.265 µM) was 0.53 and the relative viability (LOU-NH91; first compound 4 µM) was 0.419. For the same molecule, the relative viability (LU99A; first compound 0.04 µM) was 0.554, the relative viability (LU99A; first compound 0.1265 µM) was 0.533 and the relative viability (LU99A; first compound 0.4 µM) was 0.278. It also gave a relative viability (LU99A; first compound 1.265 µM) of 0.231, a relative viability (LU99A; first compound 4 µM) of 0.198 and a relative viability (NCI-H1437; first compound 0.04 µM) of 0.849. The relative viability (NCI-H1437; first compound 0.1265 µM) was 0.896, the relative viability (NCI-H1437; first compound 0.4 µM) was 0.666 and the relative viability (NCI-H1437; first compound 1.265 µM) was 0.29. The relative viability (NCI-H1437; first compound 4 µM) was 0.248, the relative viability (NCI-H1666; first compound 0.04 µM) was 0.771 and the relative viability (NCI-H1666; first compound 0.1265 µM) was 0.841. It also gave a relative viability (NCI-H1666; first compound 0.4 µM) of 0.669, a relative viability (NCI-H1666; first compound 1.265 µM) of 0.451 and a relative viability (NCI-H1666; first compound 4 µM) of 0.481. For the same molecule, the relative viability (NCI-H1975; first compound 0.04 µM) was 0.891, the relative viability (NCI-H1975; first compound 0.1265 µM) was 0.675 and the relative viability (NCI-H1975; first compound 0.4 µM) was 0.483. For the same molecule, the relative viability (NCI-H1975; first compound 1.265 µM) was 0.3, the relative viability (NCI-H1975; first compound 4 µM) was 0.235 and the relative viability (NCI-H2085; first compound 0.04 µM) was 0.745. For the same molecule, the relative viability (NCI-H2085; first compound 0.1265 µM) was 0.629, the relative viability (NCI-H2085; first compound 0.4 µM) was 0.651 and the relative viability (NCI-H2085; first compound 1.265 µM) was 0.458. The relative viability (NCI-H2085; first compound 4 µM) was 0.448, the relative viability (NCI-H2087; first compound 0.04 µM) was 0.901 and the relative viability (NCI-H2087; first compound 0.4 µM) was 0.862. It also gave a relative viability (NCI-H2087; first compound 1.265 µM) of 0.602, a relative viability (NCI-H2087; first compound 4 µM) of 0.344 and a relative viability (NCI-H2170; first compound 0.04 µM) of 0.997. It also gave a relative viability (NCI-H2170; first compound 0.1265 µM) of 1.12, a relative viability (NCI-H2170; first compound 0.4 µM) of 0.72 and a relative viability (NCI-H2170; first compound 1.265 µM) of 0.599. It also gave a relative viability (NCI-H2170; first compound 4 µM) of 0.517, a relative viability (NCI-H647; first compound 0.04 µM) of 1.03 and a relative viability (NCI-H647; first compound 0.1265 µM) of 0.486. For the same molecule, the relative viability (NCI-H647; first compound 0.4 µM) was 0.276, the relative viability (NCI-H647; first compound 1.265 µM) was 0.0835 and the relative viability (NCI-H647; first compound 4 µM) was 0.0629. For the same molecule, the relative viability (NCI-H650; first compound 0.04 µM) was 0.7, the relative viability (NCI-H650; first compound 0.1265 µM) was 0.445 and the relative viability (NCI-H650; first compound 0.4 µM) was 0.343. For the same molecule, the relative viability (NCI-H650; first compound 1.265 µM) was 0.174, the relative viability (NCI-H650; first compound 4 µM) was 0.195 and the relative viability (PC-3 [JPC-3]; first compound 0.04 µM) was 1.06. For the same molecule, the relative viability (PC-3 [JPC-3]; first compound 0.1265 µM) was 1.03, the relative viability (PC-3 [JPC-3]; first compound 0.4 µM) was 0.96 and the relative viability (PC-3 [JPC-3]; first compound 1.265 µM) was 0.851. The relative viability (PC-3 [JPC-3]; first compound 4 µM) was 0.512, the relative viability (SW 1573; first compound 0.04 µM) was 0.633 and the relative viability (SW 1573; first compound 0.1265 µM) was 0.741. The relative viability (SW 1573; first compound 0.4 µM) was 0.678, the relative viability (SW 1573; first compound 1.265 µM) was 0.48 and the relative viability (SW 1573; first compound 4 µM) was 0.385.
